Test results: ChEMBL document CHEMBL4270549, “Influence of the C-5 substitution in polysubstituted pyrimidines on inhibition of prostaglandin E2 production” (Eur J Med Chem, 2018)
Calls of active or inactive are those of the source. The calls are words filed in the database; no cut-off is given here.

Tests used:
Mus musculus = species on record: Mus musculus; assay: Inhibition of LPS-induced PGE2 production in C57BL6 mouse peritoneal cells at 50 uM measured at 5 hrs time interval by ELISA; format: functional
[1] = Inhibition of LPS-induced PGE2 production in C57BL6 mouse peritoneal cells measured at 5 hrs time interval by ELISA; format: functional; details: C57BL6, 5 h
[2] = Cytotoxicity against C57BL6 mouse peritoneal cells assessed as cell viability measured at 5 hrs time interval by LDH release assay (reference value: 98.9 +/- 1.6%); format: cell-based; details: read-out: Activity

Row | Structure (SMILES) | inhibition (Mus musculus) | IC50 [1] [nM] | viability at 5 h [2] [%]
1 | Cc1c(-c2ccccc2)nc(N)nc1-c1ccccc1 | Active | – | –
2 | Cc1ccc(-c2nc(N)nc(Cl)c2C)cc1 | Active | – | –
3 | CC(=O)Oc1ccccc1C(=O)O [ASPIRIN] | – | 4080 | –
4 | Nc1nc(Cl)cc(-c2ccccc2)n1 | Active | – | –
5 | COc1ccc(-c2cc(-c3ccc(OC)cc3)nc(N)n2)cc1 | Active | 119 | 102
6 | CCCCc1c(Cl)nc(N)nc1-c1ccc(OC)cc1 | Active | 2160 | 96.6
7 | Nc1nc(-c2ccccc2)cc(-c2ccccc2)n1 | Active | 3 | 97.4
8 | CCCCc1c(-c2ccccc2)nc(N)nc1-c1ccccc1 | Active | – | –
9 | COc1ccc(-c2cc(-c3ccccc3)nc(N)n2)cc1 | Active | 9 | 99.9
10 | CCCCc1c(-c2ccc(OC)cc2)nc(N)nc1-c1ccc(OC)cc1 | Active | 3710 | 99.1
11 | COc1ccc(-c2nc(N)nc(-c3ccc(OC)cc3)c2C)cc1 | Active | – | –
12 | COc1ccc2c(c1)c(CC(=O)O)c(C)n2C(=O)c1ccc(Cl)cc1 [INDOMETHACIN] | – | 5 | –
13 | Cc1ccc(-c2cc(-c3ccc(C)cc3)nc(N)n2)cc1 | Active | 33 | 103
14 | CCCCc1c(-c2ccc(C)cc2)nc(N)nc1-c1ccc(OC)cc1 | Active | – | –
15 | COc1ccc(-c2cc(Cl)nc(N)n2)cc1 | Active | 2790 | 103
16 | Cc1ccc(-c2nc(N)nc(-c3ccc(C)cc3)c2C)cc1 | Active | – | –

Row | Structure (SMILES) | inhibition (Mus musculus) | IC50 [1] [nM] | viability at 5 h [2] [%]
17 | CCCCc1c(Cl)nc(N)nc1-c1ccccc1 | Active | – | –
18 | COc1ccc(-c2nc(N)nc(-c3ccc(C)cc3)c2C)cc1 | Active | – | –
19 | CCCCc1c(Cl)nc(N)nc1-c1ccc(C)cc1 | Active | 1860 | 101
20 | COc1ccc(-c2cc(-c3ccc(C)cc3)nc(N)n2)cc1 | Active | – | –
21 | CCCCc1c(-c2ccccc2)nc(N)nc1-c1ccc(C)cc1 | Active | 2460 | 102
22 | CCCCc1c(-c2ccccc2)nc(N)nc1-c1ccc(OC)cc1 | Active | 3400 | 102
23 | Cc1ccc(-c2cc(-c3ccccc3)nc(N)n2)cc1 | Active | 9 | 103
24 | Cc1c(Cl)nc(N)nc1-c1ccccc1 | Active | – | –
25 | Cc1ccc(-c2nc(N)nc(-c3ccccc3)c2C)cc1 | Active | – | –
26 | COc1ccc(-c2nc(N)nc(Cl)c2C)cc1 | Active | – | –
27 | Cc1ccc(-c2cc(Cl)nc(N)n2)cc1 | Active | 2320 | 103
28 | CCCCc1c(-c2ccc(C)cc2)nc(N)nc1-c1ccc(C)cc1 | Active | – | –
29 | Nc1nc(Cl)cc(Cl)n1 | inactive | – | –
30 | Cc1c(Cl)nc(N)nc1Cl | inactive | – | –
31 | CCCCc1c(Cl)nc(N)nc1Cl | Active | 5340 | 99.8
32 | COc1ccc(-c2nc(N)nc(-c3ccccc3)c2C)cc1 | Active | – | –
